Results from ChEMBL document CHEMBL5233218, “Quinolizidine alkaloids derivatives from Sophora alopecuroides Linn: Bioactivities, structure-activity relationships and preliminary molecular mechanisms” (Eur J Med Chem, 2020).

Legend:
Type in all cases: functional, cell-based
LS180 = experiment: Cytotoxicity against human LS180 cells assessed as inhibition of cell growth by MTT assay
H22 = experiment: Cytotoxicity against mouse H22 cells assessed as inhibition of cell growth by MTT assay
[1] = Antiproliferative activity against rat HSC-T6 cells
MRC5 = experiment: Anti-fibrotic activity in human MRC5 cells assessed as inhibition of TGF-beta1 induced total collagen deposition
HepG2 = experiment: Cytotoxicity against human HepG2 cells assessed as inhibition of cell growth by MTT assay

| Compound | IC50 (LS180) [nM] | IC50 (H22) [nM] | also measured |
| --- | --- | --- | --- |
| COC(=O)CCC[C@@H]1[C@H]2CCCN3CCC[C@@H](CN1P(=O)(Oc1ccc(Br)cc1)N(CCCl)CCCl)[C@@H]23 (some centres undefined) | 2100 | 2100 | – |
| CN(C(=O)CN/C=C/c1ccccc1)[C@@H]1CC(=S)N2C[C@@H]3CCCN4CCC[C@@H]([C@H]34)[C@H]2C1 | – | – | IC50 [1]: 62000 nM |
| O=C1CC(n2ccc3cc(Cl)ccc32)C[C@@H]2[C@H]3CCCN4CCC[C@@H](CN12)[C@@H]34 (some centres undefined) | – | – | IC50 (MRC5): 3300 nM |
| COC(=O)CCC[C@@H]1[C@H]2CCCN3CCC[C@@H](CN1P(=O)(Oc1ccc(F)cc1)N(CCCl)CCCl)[C@@H]23 (some centres undefined) | 2100 | 2100 | – |
| COC(=O)CCC[C@@H]1[C@H]2CCCN3CCC[C@@H](CN1P(=O)(Oc1cccc(Cl)c1)N(CCCl)CCCl)[C@@H]23 (some centres undefined) | 2100 | 2100 | – |
| COC(=O)CCC[C@@H]1[C@H]2CCCN3CCC[C@@H](CN1P(=O)(Oc1ccc4ccccc4c1)N(CCCl)CCCl)[C@@H]23 (some centres undefined) | 2100 | 2100 | – |
| COC(=O)CCC[C@@H]1[C@H]2CCCN3CCC[C@@H](CN1P(=O)(Oc1cccc4ccccc14)N(CCCl)CCCl)[C@@H]23 (some centres undefined) | 2100 | 2100 | – |
| O=c1[nH]cc(F)c(=O)[nH]1 [FLUOROURACIL] | – | – | IC50 (HepG2): 8020 nM |
| O=C1CCC[C@@H]2[C@H]3CCCN4CCC[C@@H](CN12)[C@@H]34 [MATRINE] | – | – | IC50 [1]: 128000 nM |
